For 63 molecules, melting point results are on record in a melting point compilation (Tetko et al.; mined from patent text by program, amines drawn as free bases though some values may be those of a salt).

As to `CCN(CC)CCNC(=O)c1c(O)c2cnc(-c3ccccc3)nc2n(CCOC)c1=O`, the melting point (in general, the temperature, or range, at which the solid turns liquid) fell in the range of 115 to 117 °C. Consider `Cc1noc(CN2CCC[C@@H](OCc3cc(C(F)(F)F)cc(C(F)(F)F)c3)[C@H]2c2ccccc2)n1` (relative stereo), for which the melting point was 85 to 86 °C. For `O=c1[nH]c2ncc(-c3cn[nH]c3)nc2n1CC1CCOCC1` the value was 238 to 240 °C; for `CCOC(=S)c1sc(Cl)nc1C(F)(F)F`, 28 to 32 °C. Under `N#Cc1cccc(OCc2cccc(OCc3ccc4ccccc4n3)c2)c1` stands 86 to 87 °C; under `COc1ccc2c(=O)n(S(=O)(=O)c3ccc(Cl)cc3)c(=O)[nH]c2c1`, 205 to 206 °C; under `CC(=O)OC1CSC(Oc2cnccc2C#N)C(OC(C)=O)C1OC(C)=O` (stereo not drawn), 167 °C. In turn, `COc1ccc(C(=O)c2ccccc2F)c(Cl)c1Cl` yielded a melting point of 74 to 77 °C. Under `CC(=O)c1oc2ccc(Br)cc2c1NC(=O)c1cnoc1C` stands 206 to 208 °C.

As for `CC(=O)N(C)C1CCC(=O)c2ccccc21` (stereo not drawn), the melting point is 101 to 103 °C. Under `COc1ccc2cccc(C(CO)CNC(=O)C(F)(F)F)c2c1` (stereo not drawn) stands 138 to 140 °C; under `COc1ccc(C(C)(C)OC)cc1CN[C@H]1C2CCN(CC2)[C@H]1C(c1ccccc1)c1ccccc1`, 127 °C; under `CS(=O)(=O)c1ccc(Oc2ccc(CC(=O)O)cc2)cc1`, 122 to 125 °C. Under `Cc1c(C(=O)O)cnn1-c1ccc(Cl)c(Cl)c1` stands 188 °C; under `CSC(=Cc1ccccc1N(Cc1ccccc1)c1c(Cl)cccc1Cl)S(C)=O` (stereo not drawn), 194 to 196 °C.

`CCc1nc2c(-c3cc4ccoc4cc3C)ncnc2n1C(C1CC1)C1CC1`: the melting point lay within 139 to 141 °C. Under `C#Cc1ccc(NC=C(C(=O)NCCC)C(=O)c2ccccc2Cl)cc1` stands 95 to 96 °C; under `COC(=O)COc1ccc2ccc(C(C)=O)c(O)c2c1`, 133 to 135 °C; under `CCS(=O)(=O)Nc1cc(Cc2c[nH]cn2)ccc1F`, 122 to 123 °C. Under `COc1cccc2c1[C@@H](Oc1cc(C(=O)N(C)C)cn3c(C)c(C)nc13)[C@H](O)C2` (relative stereo) stands 129 °C; under `CCOC(=O)c1cc(CC)sc1Nc1ccc(Cl)cc1N`, 119 to 121 °C. For `CCN1c2ncccc2C(OS(C)(=O)=O)Nc2c(C)cc(C)nc21` (stereo not drawn) the value was 154 to 155 °C; for `CCCCC(=N)OCC`, 89 to 91 °C; for `NC(=O)CN1CC(OCc2ccccc2)=CC1=O`, 174 to 176 °C.

`O=C1C(CCC(O)c2ccc(F)cc2)C(c2ccc(-c3cccc(O)c3)cc2)N1c1ccc(F)cc1` (stereo not drawn) gave a melting point of 107 °C.

In turn, `N#Cc1cc(C#N)cc(OC(C(=O)C2CC2)C(=O)C2CC2)c1` came in with a melting point of 135 to 137 °C. Under `O=c1cc(NCCN2CCN(c3ccccc3)CC2)cn[nH]1` stands 147 to 149 °C.

On to `Cc1cc(C)c(Oc2cc(Nc3ccc(C#N)cc3)c([N+](=O)[O-])cc2[N+](=O)[O-])c(C)c1`, for which the melting point stood at 132 °C.

`Cc1cc(Br)ccc1C1(Cn2cncn2)OCCO1` yielded a melting point of 148 °C. Under `COCCc1nc2c(N)nc3ccccc3c2n1CCCNC(=O)c1ccccc1` stands 183 to 186 °C; under `NC(=O)N1CCC(C2c3ncc(Br)cc3CCc3cc(Cl)cc(Cl)c32)CC1` (single isomer, unassigned; (+)), 102 to 103 °C; under `CCOC(=O)c1c(Cl)nc(CC)n1Cc1ccc2oc(-c3ccccc3NC(=O)OC(C)(C)C)c(Br)c2c1`, 73 to 74 °C.

On to `O=C(c1ccc(F)cc1)C1CCN(C2CN(Cc3ccncc3)CCC2O)CC1` (stereo not drawn), for which the melting point came to 182 °C.

Molecule `Clc1cc(C#Cc2nccs2)c2oc(Cc3ccccc3Cl)nc2c1` displayed a melting point of 149 to 151 °C. Under `O=C(O)[C@@H]1CCC(=O)N1C(=O)CCC1CCCC1` stands 135 to 138 °C. Under `CSCCNC(=O)c1cccc(-c2ccc3c(c2)C(Oc2ccc(Cl)cc2Cl)CC3)c1` (stereo not drawn) stands 141 to 142 °C. The molecule `CCCCCOc1nc(Cl)nc2ccccc12` came in with a melting point of 32 to 34 °C. Under `CCC1CC2C3CCC4=CC(=O)CCC4C3CCC2(C)C1O` (stereo not drawn) stands 150 to 152 °C; under `CCSC1=C(NC(=O)CN2CCN(CCSc3nc4c(C)c(Cl)cc(C(C)C)c4o3)CC2)C=CC(C)(SCC)N1` (stereo not drawn), 120 to 122 °C; under `O=C1Nc2ccc(F)nc2N2CCNCC12` (stereo not drawn), 305 to 308 °C. `C[C@@H](Nc1nnc(-c2ccccc2)c2occc12)C1CCCCC1`: the melting point was 126 to 130 °C.

`CC1=C(C(O)(c2ccc(C)cc2)C2SCSCS2)CN(C)O1` (stereo not drawn) yielded a melting point of 150 to 152 °C. The molecule `COC(=O)c1ccc2c(c1)NCc1ccccc1O2` registered a melting point of 125 to 126 °C. For `OC(Cc1ccccc1)c1ccccc1Br` (stereo not drawn) the value was 84 to 85 °C; for `COc1cc(Cc2cnc(N)nc2N)cc2c1OC(C)(C)C=C2c1cccc([N+](=O)[O-])c1`, 253 to 254 °C.

For `CC(C)(C)c1cc(C(=O)OCc2ccc(C(=O)OCc3ccccc3)cc2)cc(C(C)(C)C)c1O`, the melting point fell in the range of 110 to 111 °C.

In turn, `CN(O)C(=O)C1CCC(C2CCCCC2)CC1` (stereo not drawn) returned a melting point of 89 to 90 °C. Under `CN1CCN(c2ccc(Nc3nc(N)c(C(=O)c4c(Cl)cc(C(F)(F)F)cc4Cl)s3)cc2)CC1` stands 239 to 240 °C; under `OCCCCC=CCCc1ccc(OCc2ccccc2)cc1`, 65 to 67 °C; under `CCCCCCCCCCCCn1nnnc1Nc1ccccc1`, 108 to 111 °C.

Molecule `Cc1nc2c3c(c(C(=O)NCCCO)cc2n1C)CCC1(Cc2ccccc2C1)N3` displayed a melting point of 237 to 238 °C. Take `Cc1ccc(CC(C(=O)NC(Cc2ccc(C#N)cc2)C(=O)N(C)C)S(=O)(=O)Nc2cccc3ccccc23)c(C)c1` (stereo not drawn): the melting point was found to be 140 °C.

`O=Cc1c(F)cccc1Sc1ccc(F)cc1` registered a melting point of 94 to 97 °C. For `COCOC1CCN(c2ccc(NC(=O)c3cnn(-c4ccc(Cl)cc4)c3C)cc2C#N)CC1` the value was 186 to 188 °C; for `CC(=O)Cc1nc2ccccc2c(=O)o1`, 120 to 122 °C. For `O=C(Nc1ccc2[nH]cnc2c1)C(=O)N1CCC(Cc2ccccc2)CC1` the value was 85 to 87 °C; for `Cc1[nH]c(C#N)c(C)c1-c1nc2ccc(Oc3ccccc3)cc2[nH]1`, 278 to 280 °C. Under `N#CN1CCN(c2nn(-c3ccccc3)c3cc(F)ccc23)CC1` stands 172 to 174 °C; under `O=C1N(c2ccccc2)c2ccccc2C1(Cc1ccncc1)Cc1ccc([N+](=O)[O-])cc1` (stereo not drawn), 168 to 169 °C. `Nc1c(Cl)cc(C(O)CNCCC#CCOCCc2ccccc2)cc1Cl` (stereo not drawn) gave a melting point of 62.5 to 63 °C. Under `CCN1C(=O)C(C)(C)C(=O)N(C)c2cc(CN(CCn3cc(C)c4occc4c3=O)Cc3ncccc3N)ccc21` stands 188 to 192 °C. Under `CC(=O)OC(=CC(=O)O)CC(=O)Nc1cccc(F)c1` stands 117 °C; under `COc1ccccc1C1OC(=O)NC1=O` (stereo not drawn), 175 to 177 °C.
